“Also recorded” adds a separate entry of the source.
Key:
[1] = test system: human cultured airway smooth muscle cells; assay: Cell counting (increase in cell number); format: cell-based; settings: FCS (1%) or bFGF (300 pM); 3 μM; 48 h
Description: Human bronchial airway smooth muscle was obtained from macroscopically normal lung resection specimens from lung transplant donors or recipients provided by the Alfred Hospital (Melbourne). Cultures were prepared as previously described in detail (Tomlinson et al., 1994). […]
The progression of airway smooth muscle cells through the cell-cycle to mitosis was determined by measuring changes in cell number in experiments of analogous design to those used for DNA synthesis, except that the incubations with mitogen were continued for 48 hours. […] At the end of this period, a further 200 μl of PBS (20% FCS) was added to prevent cell lysis by trypsin and cells were counted directly in a haemocytometer.
Each treatment in an individual experiment was carried out in quadruplicate for DNA and protein synthesis experiments. […] Results are presented as grouped data from multiple cultures and are expressed as mean ±S. E. of n cultures. The degree of increment was calculated by dividing the response of treated wells by that of the control wells on the same 24-well plate. The grouped data was analysed by paired t-test after normalisation by log transformation. […]

[2] = test system: human cultured airway smooth muscle cells; assay: DNA synthesis: [3H]-thymidine incorporation; format: cell-based
Description: (§1) Human bronchial airway smooth muscle was obtained from macroscopically normal lung resection specimens from lung transplant donors or recipients provided by the Alfred Hospital (Melbourne). Cultures were prepared as previously described in detail (Tomlinson et al., 1994). Briefly, the tissue was partially digested in Dulbecco's Modified Eagle's Medium (DMEM), [supplemented with 2 mM L-glutamine, 100 μg/ml streptomycin, 100 U/ml penicillin-G, 2 μg/ml amphotericin B, and 0.25% w/v bovine serum albumin (BSA)] containing 3 mg/ml collagenase for 30 minutes at 37° C. and approximately 0.5 g smooth muscle was further digested by a 2 hour incubation in 0.5 mg/ml elastase, followed by an 18 hour incubation in collagenase (3 mg/ml) at 37° C. Cell suspensions ere centrifuged (10 min, 100×g, 25° C.), washed three times in supplemented DMEM, resuspended in 25 ml DMEM containing 10% (v/v) heat-inactivated foetal calf serum (FCS), seeded into 25 cm^2 Falcon culture flasks and incubated (37° C., 5% CO2) for 7 to 10 days until monolayer confluence was reached. Cells were then harvested weekly by 10 min exposure to 0.5% trypsin, 1 mM EDTA and passaged at a 1:3 split ratio into 75 cm^2 Falcon culture flaskes. Cells at passage numbers 3 to 15 were used for experiments.
(§2) Cells were subcultured into 24-well plates at a 1:3 ratio and allowed to grow to monolayer confluency over a 72-96 hour period in an atmosphere of 5% CO2 in air at 37° C. The serum-containing medium was replaced with serum-free DMEM for a 24 hour period to produce growth arrest. In some experiments, the cells were pretreated with 2-methoxyestradiol 30 min before the addition of mitogen. The stimulant (mitogen) was added to the appropriate wells together with a supplement containing insulin, transferrin, and selenium (Monomed A, 1% v/v). Monomed A was added to provide progression factors which are essential for the mitogenic activity of growth factors such as thrombin, epidermal growth factor (EGF) and basic fibroblast growth factor (bFGF) (Stewart et al., 1995a). Mitogens and inhibitors were left in contact with cells from the time of addition until the end of the experiment, unless indicated otherwise. Cells were incubated for 24 hours (37° C., 5% CO2) before being pulsed with [^3 H]-thymidine (1 μCi/ml for four hours) to measure incorporation of radiolabel into newly synthesized DNA, according to out previous study (Stewart et al., 1995). Incorporation of radioactivity was determined by filtration at the end of the pulse-labelling period. The medium containing the radioactivity was aspirated and the cells were lysed by addition of 200 μl of 0.1M NaOH. The DNA was immobilised by filtration in a binding harvester (Packard Filtermate 196) on glass fibre filters (Packard, standard), which were then washed with 3×3 ml volumes of distilled water and a single 1 ml volume of 100% ethanol. The dried filters were counted in a Packard Topcount liquid scintillation counter. Protein synthesis rates were determined in experiments of analogous design to those described above, but [^3 H]-leucine replaced [^3 H]-thymidine in the pulsing incubation of 4 hours. Furthermore, in experiments to determine the effects of mitogens and 2-methoxyestradiol on the rate of protein synthesis, incubations with mitogen were carried out for a period of 48 hours. The longer duration of these experiments was required to allow sufficient time for cell division to occur.
(§3) Each treatment in an individual experiment was carried out in quadruplicate for DNA and protein synthesis experiments. Each experiment was performed in at least three different cultures obtained from three different individuals. For cell counting, single incubations were carried out in three cultures. Results are presented as grouped data from multiple cultures and are expressed as mean ±S. E. of n cultures. The degree of increment was calculated by dividing the response of treated wells by that of the control wells on the same 24-well plate.

[3] = test system: certain transformed cell lines; settings: Lottering et al., 1992; cited from earlier work
horseradish peroxidase = assay: Oxidation of tetramethyl benzidine by purified horseradish peroxidase; format: biochemical; settings: 10 μM
[4] = test system: human cultured airway smooth muscle cells; assay: Protein synthesis: [3H]-leucine incorporation; format: cell-based; settings: for 5HT-stimulated increase in protein synthesis: 5HT 10 nM, 0.3-10 μM
Description: as §1, §2, §3

tumours = settings: cited from earlier work
[5] = test system: pig endometrial cell cultures; settings: Zhang & Davis, 1992; cited from earlier work
[6] = test system: airway smooth muscle cells; assay: Morphological changes (cell rounding); format: cell-based, human
adherent monocytes = assay: Superoxide anion generation in adherent monocytes; format: cell-based, human
glucocorticoid receptors = settings: Merriam et al, 1980; cited from earlier work
[7] = 3 μM, thrombin, additional time points

COc1cc2c(cc1O)CC[C@@H]1[C@@H]2CC[C@]2(C)[C@@H](O)CC[C@@H]12 [2-methoxyestradiol, 1,3,5[10]-estratriene-2,3,17-triol 2-methylether]
increase in cell number [1]: complete inhibition | DNA synthesis, addition at 18 hours or later after thrombin ([2]; 3 μM, thrombin 0.3 U/ml): no effect | time of addition after thrombin giving maximum inhibition ([2]; 3 μM, thrombin 0.3 U/ml, first time-course): 2 h | thrombin-stimulated DNA synthesis, addition up to 4 h after thrombin ([2]; 3 μM, thrombin 0.3 U/ml, time-course): inhibited | persistence of significant inhibition after thrombin addition [2, 7]: up to 6 hours | time of addition giving the highest level of activity [2, 7]: either simultaneously or 1 hour after thrombin | relative potency among analogues examined ([2]; DNA synthesis): most potent of the analogues examined | DNA synthesis in the presence of EGF or 10% FCS ([2]; EGF 3 nM or 10% FCS, relative to thrombin, bFGF, lower FCS): inhibited to a significantly lesser extent | FCS (1%)-stimulated DNA synthesis, 10 μM ([2]; FCS 1%, 10 μM): inhibition was observed at 10 μM; also recorded: equivalent to 2-methoxyestradiol (10 μM) | FCS (1%)-stimulated DNA synthesis, lower concentrations ([2]; FCS 1%, lower concentrations): enhanced | inhibition with FCS (10%) ([2]; FCS 10%): significantly less inhibited | inhibition at 3 µM ([2]; Homo sapiens, 3 μM, thrombin 0.3 U/ml, read-out: inhibition of DNA synthesis, addition between 4 and 14 hours after thrombin): ~20% | activity at 10 µM ([2]; Homo sapiens, thrombin 0.3 U/ml, 10 μM, read-out: response to thrombin ([3H]-thymidine), remaining): ~10% | concentration-response of enhancement of thrombin-stimulated DNA synthesis ([2]; thrombin): bell-shaped concentration-response curve | enhancement of thrombin-stimulated DNA synthesis, 10 μM ([2]; thrombin 0.3 U/ml, 10 μM): level of enhancement declined at 10 μM | thrombin-stimulated incorporation of [3H]-thymidine ([2]; thrombin 0.3 U/ml, 0.3-10 μM, 30 min pretreatment): concentration-dependentreduction | thrombin-stimulated DNA synthesis (analogues) ([2]; thrombin 0.3 U/ml, up to 3 μM): enhanced thrombin-stimulated DNA synthesis | proliferation of transformed cell lines [3]: inhibits proliferation | oxidation of tetramethyl benzidine by purified horseradish peroxidase (horseradish peroxidase): lack of effect; also recorded: no effect | 5HT-stimulated increase in protein synthesis [4]: decreased | 5HT-stimulated increase in protein synthesis ([4]; listed as 2-methoxyoestradiol): inhibited | [3H]-leucine incorporation, compound alone, 0.3 μM ([4]; unstimulated, 0.3 μM): small stimulation | growth of tumours (tumours; Fotsis et al., 1994): inhibited the growth of tumurs | tumour neovascularization (tumours; Klauber et al, 1997): Inhibition of tumour neovascularization | synthesis of PGF2α [5]: inhibits the synthesis of PGF2α | onset of shape changes ([6]; 3 and 10 μM): ≤ 6 h | morphological changes ([6]; 3 and 10 μM (2-methoxyestradiol)): rounded appearance of the normally spindle-shaped cells | superoxide anion generation in adherent monocytes, PMA (adherent monocytes; response to PMA): unaffected | superoxide anion generation in adherent monocytes, zymosan (adherent monocytes; zymosan-stimulated, 10 μM, at least some donors): markedly inhibited | affinity for glucocorticoid receptors (glucocorticoid receptors): not to have significant affinity

From patent US6200966A, “Compositions for inhibiting airway wall inflammation” (Amrad Operations Pty. Ltd., priority 1996, dated 2001)
